Common to all, as to format: functional
Experiment [1] relates to Mus musculus. Kind of experiment: Compound was evaluated for the percent increase in life span against M5076 sarcoma in mice at a sc dose of 100 mg/kg/day. To be noted: route subcutaneous.
The test system of experiment [2] is Mus musculus. As to the kind of experiment: Compound was evaluated for the percent increase in life span against M5076 sarcoma in mice at a sc dose of 200 mg/kg/day. To be noted: route subcutaneous.
Experiment [3] relates to Mus musculus. As to the kind of experiment: Compound was evaluated for the body weight change from day 1 to day 12 against M5076 sarcoma in mice at a sc dose of 100 mg/kg/day. To be noted: route subcutaneous.
Experiment [4] deals with Mus musculus. As to the kind of experiment: Compound was evaluated for the body weight change from day 1 to day 12 against M5076 sarcoma in mice at a sc dose of 300 mg/kg/day: toxic. The note with it: route subcutaneous.
Experiment [5] has as its system Mus musculus. As to the kind of experiment: Compound was evaluated for the body weight change from day 1 to day 12 against M5076 sarcoma in mice at a sc dose of 200 mg/kg/day. To be noted: route subcutaneous.
The test system of experiment [6] is Mus musculus. Kind of experiment: Compound was evaluated for the tumor growth inhibition on day 21 against M5076 sarcoma implanted sc in mice at a dose of 200 mg/kg/day. The note with it: 504 h, route subcutaneous, read-out: TGI.
For experiment [7], the system named is Mus musculus. Kind of experiment: Compound was evaluated for the tumor growth inhibition on day 21 against M5076 sarcoma implanted sc in mice at a dose of 100 mg/kg/day. To be noted: 504 h, route subcutaneous, read-out: TGI.
The test system of experiment [8] is Mus musculus. Kind of experiment: Compound was evaluated for the percent increase in life span against M5076 sarcoma in mice at a sc dose of 300 mg/kg/day. To be noted: route subcutaneous.
Experiment [9] concerns Mus musculus. As to the kind of experiment: Compound was evaluated for the tumor growth inhibition on day 21 against M5076 sarcoma implanted sc in mice at a dose of 25 mg/kg/day. To be noted: 504 h, route subcutaneous, read-out: TGI.
For experiment [10], the system named is Mus musculus. As to the kind of experiment: Compound was evaluated for the body weight change from day 1 to day 12 against M5076 sarcoma in mice at a sc dose of 50 mg/kg/day. To be noted: route subcutaneous.
The test system of experiment [11] is Mus musculus. As to the kind of experiment: Compound was evaluated for the percent increase in life span against M5076 sarcoma in mice at a sc dose of 25 mg/kg/day. To be noted: route subcutaneous.
Experiment [12] has as its system Mus musculus. As to the kind of experiment: Compound was evaluated for the body weight change from day 1 to day 12 against M5076 sarcoma in mice at a sc dose of 25 mg/kg/day. The note with it: route subcutaneous.
Experiment [13] has as its system Mus musculus. Kind of experiment: Compound was evaluated for the body weight change from day 1 to day 12 against M5076 sarcoma in mice at a sc dose of 300 mg/kg/day. To be noted: route subcutaneous.
In experiment [14] the test system is Mus musculus. Kind of experiment: Compound was evaluated for the percent increase in life span against M5076 sarcoma in mice at a sc dose of 50 mg/kg/day. The note with it: route subcutaneous.
Experiment [15] has as its system Mus musculus. As to the kind of experiment: Compound was evaluated for the tumor growth inhibition on day 21 against M5076 sarcoma implanted sc in mice at a dose of 50 mg/kg/day. To be noted: 504 h, route subcutaneous, read-out: TGI.
The subject of experiment [16] is Mus musculus. Kind of experiment: Compound was evaluated for the tumor growth inhibition on day 21 against M5076 sarcoma implanted sc in mice at a dose of 300 mg/kg/day. The note with it: 504 h, route subcutaneous, read-out: TGI.

Drawing on ChEMBL document CHEMBL1129023, “Nucleosides and nucleotides. 150. Enzymatic synthesis of 5-phosphatidyl derivatives of (CNDAC) and their notable antitumor effects in mice1” (1996), this text covers ILS, Weight change and inhibition in vivo for six molecules.

Regarding `CCCCCCCCCCCCCC(=O)OCC(COP(=O)([O-])OC[C@H]1O[C@@H](n2ccc(N)nc2=O)[C@@H](C#N)[C@@H]1O)OC(=O)CCCCCCCCCCCCC.[Na+]` (stereo not given in full), the ILS at 100 mg/kg/day in [1] was 4%. Further, the ILS at 200 mg/kg/day in experiment [2] is 22%. For the same molecule, the Weight change in experiment [3] is reported as 0.8 g; in experiment [4], 1 g; in experiment [5], 0.3 g. For the same molecule, in experiment [6], the inhibition in vivo at 200 mg/kg/day turned out to be 97%. In addition, the inhibition in vivo at 100 mg/kg/day in [7] turned out to be 80%. The ILS at 300 mg/kg/day in [8] worked out at 0%.
Consider `CCCCCCCC/C=C\CCCCCCCC(=O)OCC(COP(=O)([O-])OC[C@H]1O[C@@H](n2ccc(N)nc2=O)[C@@H](C#N)[C@@H]1O)OC(=O)CCCCCCC/C=C\CCCCCCCC.[Na+]` (stereo not given in full), for which the inhibition in vivo at 25 mg/kg/day in experiment [9] is 69%. For the same molecule, the Weight change in [10] worked out at 0.8 g; in experiment [3], 0.6 g; in experiment [12], 1.6 g; in experiment [13] it was 3 g; in experiment [5] it was 2 g. In addition, the ILS at 100 mg/kg/day in [1] is 13%. Also, in experiment [2], the ILS at 200 mg/kg/day was -12%. For the same molecule, the ILS at 25 mg/kg/day in experiment [11] was -3%. Further, the inhibition in vivo at 100 mg/kg/day in [7] is 98%. Moreover, the ILS at 50 mg/kg/day in [14] came out at 7%. Also, the ILS at 300 mg/kg/day in experiment [8] was -58%. In experiment [15], the inhibition in vivo at 50 mg/kg/day stood at 92%.
For `CCCCCCCCCCCCCCCCCC(=O)OCC(COP(=O)([O-])OC[C@H]1O[C@@H](n2ccc(N)nc2=O)[C@@H](C#N)[C@@H]1O)OC(=O)CCCCCCCCCCCCCCCCC.[Na+]` (stereo not given in full), the ILS at 100 mg/kg/day in [1] was 20%. For the same molecule, the ILS at 200 mg/kg/day in experiment [2] was determined as 49%. For the same molecule, the Weight change in experiment [3] is listed as 1.2 g; in experiment [13], -0.3 g; in [5] it was -0.2 g. Besides, in experiment [16], the inhibition in vivo at 300 mg/kg/day is 98%. In addition, in [6], the inhibition in vivo at 200 mg/kg/day is 97%. Also, in experiment [7], the inhibition in vivo at 100 mg/kg/day stood at 88%. Moreover, the ILS at 300 mg/kg/day in [8] was determined as 60%.
`CCCCC/C=C\C/C=C\CCCCCCCC(=O)OCC(COP(=O)([O-])OC[C@H]1O[C@@H](n2ccc(N)nc2=O)[C@@H](C#N)[C@@H]1O)OC(=O)CCCCCCC/C=C\C/C=C\CCCCC.[Na+]` (stereo not given in full): the ILS at 100 mg/kg/day in experiment [1] came to 15%. In experiment [2], the ILS at 200 mg/kg/day was found to be 10%. The results for the Weight change in experiment [3], in [13] and in experiment [5] were -0.3 g, 1 g and 1 g, respectively. The inhibition in vivo at 100 mg/kg/day in experiment [7] was found to be 93%. Also, the ILS at 300 mg/kg/day in [8] was determined as 15%.
With `N#C[C@H]1[C@H](O)[C@@H](CO)O[C@H]1n1ccc(N)nc1=O` [TAS-109], the ILS at 100 mg/kg/day in experiment [1] was -11%. Further, in experiment [2], the ILS at 200 mg/kg/day is -7%. For the same molecule, the results for the Weight change in experiment [3], in experiment [13] and in [5] were 1.1 g, 1 g and 1.2 g, respectively. Also, the inhibition in vivo at 300 mg/kg/day in [16] worked out at 67%. Besides, the inhibition in vivo at 200 mg/kg/day in experiment [6] stood at 47%. In experiment [7], the inhibition in vivo at 100 mg/kg/day turned out to be 38%. Moreover, in [8], the ILS at 300 mg/kg/day stood at 14%.
In the case of `CCCCCCCCCCCCCCCC(=O)OCC(COP(=O)([O-])OC[C@H]1O[C@@H](n2ccc(N)nc2=O)[C@@H](C#N)[C@@H]1O)OC(=O)CCCCCCCCCCCCCCC.[Na+]` (stereo not given in full), the ILS at 100 mg/kg/day in experiment [1] was 21%. Further, the ILS at 200 mg/kg/day in [2] was 38%. Further, the Weight change is given as 0.9 g in experiment [3], 1 g in experiment [13] and 0 g in [5]. The inhibition in vivo at 300 mg/kg/day in experiment [16] was 100%. Besides, in experiment [6], the inhibition in vivo at 200 mg/kg/day amounted to 98%. Further, the inhibition in vivo at 100 mg/kg/day in experiment [7] came to 93%. Moreover, the ILS at 300 mg/kg/day in experiment [8] was 40%.
